{
  "source": "ChEMBL document CHEMBL5506049",
  "about": "“Discovery of Novel Small-Molecule-Based Potential PD-L1/EGFR Dual Inhibitors with High Druggability for Glioblastoma Immunotherapy” (J Med Chem, 2024)",
  "key": {"[1]": {"system": "U-87 MG", "assay": "Induction of cell cycle arrest in human U-87 MG cells assessed as decrease in accumulation of cells at S phase at 0.5 uM incubated for 48 hrs by flow cytometry (reference value: 30.36%)", "assay_type": "functional, U-87MG ATCC", "design": "scale not given: the % may be the effect or the level left"}, "[2]": {"assay": "cells", "conditions": "GL261, 72 h", "description": "Antiproliferative activity against human GL261 cells incubated for 72 hrs by MTT assay"}, "[3]": {"assay": "In vivo antitumor activity against […] GL261 cells xenografted in C57BL/6 mouse assessed as tumor growth inhibition (tumor weight decrease) at 50 mg/kg, IG treated for 21 days relative to control", "assay_type": "functional", "conditions": "GL261, po, 504 h, time 21 day, read-out: TGI"}, "[4]": {"target": "Programmed cell death 1 ligand 1 (Mus musculus) (UniProt Q9EP73)", "sequence (Q9EP73 whole entry)": "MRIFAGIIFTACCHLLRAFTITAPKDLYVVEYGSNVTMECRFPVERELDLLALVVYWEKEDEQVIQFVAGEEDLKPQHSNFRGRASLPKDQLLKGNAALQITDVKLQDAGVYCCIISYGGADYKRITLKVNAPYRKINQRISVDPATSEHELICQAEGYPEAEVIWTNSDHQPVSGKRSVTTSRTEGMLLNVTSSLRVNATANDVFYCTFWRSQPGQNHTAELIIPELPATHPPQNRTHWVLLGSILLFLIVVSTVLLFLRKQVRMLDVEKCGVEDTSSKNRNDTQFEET", "assay": "(§1) Binding affinity to recombinant mouse His-tagged PD-L1 expressed in HEK293 cells by SPR analysis"}, "[5]": {"target": "Programmed cell death 1 ligand 1 (Mus musculus, UniProt Q9EP73)", "sequence (Q9EP73 whole entry)": "as above", "assay": "as §1"}, "[6]": {"assay": "MRT (0 to t) in Sprague-Dawley rat at 4 mg/kg, iv measured upto 72 hrs by (LC-MS)/MS analysis", "assay_type": "ADME, organism-based", "conditions": "in vivo"}, "[7]": {"assay": "AUC (0 to infinity) in Sprague-Dawley rat at 4 mg/kg, iv measured upto 72 hrs by (LC-MS)/MS analysis", "assay_type": "ADME, organism-based", "conditions": "in vivo"}, "[8]": {"system": "U-87 MG", "assay": "In vitro immunoregulatory effect in IFN-gamma stimulated human U-87 MG cells co-cultured with PHA-P stimulated with human Jurkat T cell assessed as cytotoxicity by measuring cell viability at 0.5 uM incubated for 48 hrs by CCK-8 assay relative to control", "assay_type": "functional, U-87MG ATCC"}, "[9]": {"system": "U-87 MG", "assay": "Induction of cell cycle arrest in human U-87 MG cells assessed as accumulation of cells at G0/G1 phase at 1 uM incubated for 48 hrs by flow cytometry (reference value: 60.51%)", "assay_type": "functional, U-87MG ATCC"}, "[10]": {"assay": "Toxicity in C57BL/6 mouse xenografted with […] GL261 cells assessed as cell necrosis in liver at 100 mg/kg, IG treated for 21 days by hematoxylin-eosin staining based microscopy assay", "assay_type": "organism-based", "conditions": "in vivo, po, 504 h, time 21 day"}, "[11]": {"assay": "Toxicity in C57BL/6 mouse xenografted with […] GL261 cells assessed as adverse effect at 50 to 100 mg/kg, IG treated for 21 days", "assay_type": "organism-based", "conditions": "in vivo, po, 504 h, dose 50-100 mg/kg, time 21 day"}, "[12]": {"assay": "Cmax in Sprague-Dawley rat at 20 mg/kg, po measured upto 72 hrs by (LC-MS)/MS analysis", "assay_type": "ADME, organism-based", "conditions": "in vivo"}, "[13]": {"assay": "Tmax in Sprague-Dawley rat at 20 mg/kg, po measured upto 72 hrs by (LC-MS)/MS analysis", "assay_type": "ADME, organism-based", "conditions": "in vivo"}, "[14]": {"assay": "Toxicity in C57BL/6 mouse xenografted with […] GL261 cells assessed as cell necrosis in kidney at 100 mg/kg, IG treated for 21 days by hematoxylin-eosin staining based microscopy assay", "assay_type": "organism-based", "conditions": "in vivo, po, 504 h, time 21 day"}, "[15]": {"assay": "MRT (0 to t) in Sprague-Dawley rat at 20 mg/kg, po measured upto 72 hrs by (LC-MS)/MS analysis", "assay_type": "ADME, organism-based", "conditions": "in vivo"}, "[16]": {"assay": "AUC (0 to t) in Sprague-Dawley rat at 20 mg/kg, po measured upto 72 hrs by (LC-MS)/MS analysis", "assay_type": "ADME, organism-based", "conditions": "in vivo"}},
  "data": [
    {"smiles": "COc1cc2ncnc(Nc3cccc(Cl)c3F)c2cc1OCCCCNCc1c(OC)cc(OCc2cccc(-c3ccccc3)c2C)cc1OC", "values": [
      {"measurement": "Activity", "setting": "[1]", "result": 28.36, "unit": "%"},
      {"measurement": "IC50", "setting": "[2]", "result": 1190, "unit": "nM"},
      {"measurement": "inhibition in vivo at 50 mg/kg", "setting": "[3]", "result": 61.4, "unit": "%"},
      {"measurement": "Activity", "setting": "[4]", "result": "Dose-Dependent Effect"},
      {"measurement": "Kd", "setting": "[5]", "result": 520, "unit": "nM"},
      {"measurement": "MRT last at 72 h", "setting": "[6]", "result": 12.7, "unit": "h"},
      {"measurement": "AUC(0-inf)", "setting": "[7]", "result": 2910, "unit": "ng·h/mL"},
      {"measurement": "Activity", "setting": "[8]", "result": 73.8, "unit": "%"},
      {"measurement": "Activity", "setting": "[9]", "result": 69.48, "unit": "%"},
      {"measurement": "Activity", "setting": "[10]", "result": "Non-Toxic"},
      {"measurement": "Activity", "setting": "[11]", "result": "Non-Toxic"},
      {"measurement": "Cmax", "setting": "[12]", "result": 255, "unit": "ng/mL"},
      {"measurement": "Tmax", "setting": "[13]", "result": 3.6, "unit": "h"},
      {"measurement": "Activity", "setting": "[14]", "result": "Non-Toxic"},
      {"measurement": "MRT last at 72 h", "setting": "[15]", "result": 17.5, "unit": "h"},
      {"measurement": "AUC(0-t) at 72 h", "setting": "[16]", "result": 3150, "unit": "ng·h/mL"}
    ]}
  ]
}
